Test results taken from patent US9468602B2, “Pharmaceutical microemulsion for preventing supramolecular aggregation of amphiphilic molecules” (AZAD Pharma AG, priority 2009, dated 2016).

Test: Dynamic Laser Light Scattering (DLLS) analysis of supramolecular aggregation
Assay type: physicochemical
Procedure: Dynamic Laser Light Scattering (DLLS) was carried out on a Zetasizer Nano S from Malvern Instruments. DLLS is used for measuring the size of the microemulsion oil droplets or size of the supramolecular aggregates (% distribution function modality). Further characterization of supramolecular aggregation is given by the correlation coefficient function modality analysis of the Dynamic Laser Light Scattering.
In order to monitor the level of molecular aggregation in solution, Dynamic Laser Light Scattering (DLLS) has been used. Using this technique, it is not necessary to dilute the sample.

Aggregation by DLLS (correlation coefficient function) (50 μg/ml in water): presence of aggregates
SMILES: CC(=O)O[C@@]12CO[C@@H]1C[C@H](O)[C@@]1(C)C(=O)[C@H](O)C3=C(C)[C@@H](OC(=O)[C@H](O)[C@@H](NC(=O)OC(C)(C)C)c4ccccc4)C[C@@](O)([C@@H](OC(=O)c4ccccc4)[C@H]21)C3(C)C [docetaxel]
Aggregation by DLLS (correlation coefficient function) (50 μg/ml in water plus triacetin 10 mg/ml): greatly reduces supramolecular aggregation
Aggregation by DLLS (correlation coefficient function) (50 μg/ml in water plus triacetin 30 mg/ml): totally eliminates the presence of molecular aggregates
